Test results: patent US20230026869A1, “CRYSTAL FORM OF NUCLEOPROTEIN INHIBITOR AND USE THEREOF” (CHIA TAI TIANQING PHARMACEUTICAL GROUP CO., LTD., priority 2019, published 2023)

Experiment: Study on solid stability of crystal form P (high temperature, high humidity, light, accelerated conditions; XRPD and HPLC)
Type: physicochemical
Description: In order to evaluate the solid stability of the crystal form P, the crystal form P was investigated for influence factors (high temperature, high humidity and light), stability under accelerated conditions and stability under intermediate conditions. The crystal form P was placed at high temperature (60° C., closed), high humidity (room temperature, 92.5% RH, sealing film wrapping and pricking 5-10 small holes) for 5 days and 10 days, then placed under visible light and ultraviolet light (a light-shielding control group was wrapped by tinfoil paper) according to ICH conditions (visible light illumination reached 1.2E+06 Lux hrs, ultraviolet light illumination reached 200 W·hrs/m) in a closed manner, and meanwhile, placed with stability under accelerated conditions ([…]/75% RH, sealing film wrapping and pricking 5-10 small holes) for 10 days and 1-2 months.

[1] = 92.5% RH, room temperature, Day 5
[2] = 92.5% RH, room temperature, Day 10
[3] = Light-shielding control group, taken simultaneously with the visible light + ultraviolet groups
[4] = Light-shielding control group, taken simultaneously with the visible light group
[5] = Visible + ultraviolet (ICH), illumination reaches 200 W · hrs/m^2
[6] = Visible light (ICH), illumination reaches 1.2E+06 Lux · hrs

CC1(NC(=O)C(=O)c2c(Cl)c(C(=O)Nc3cc(F)c(F)c(F)c3)c3n2CCC3)CCC(CC(=O)O)CC1 (centres unmarked) [crystal form P]
99.9%: Relative purity [4]
100.0%: Relative purity (60° C., closed, Day 5) | Relative purity (60° C., closed, Day 10) | Relative purity (60° C./75% RH, 1 month) | Relative purity (60° C./75% RH, Day 10) | Relative purity (60° C./75% RH, Month 2) | Relative purity [1] | Relative purity [2] | Relative purity [3] | Relative purity [5] | Relative purity [6]
Unchanged: Crystal form change (60° C., closed, Day 5) | Crystal form change (60° C., closed, Day 10) | Crystal form change (60° C./75% RH, 1 month) | Crystal form change (60° C./75% RH, Day 10) | Crystal form change (60° C./75% RH, Month 2) | Crystal form change [1] | Crystal form change [2] | Crystal form change [3] | Crystal form change [4] | Crystal form change [5] | Crystal form change [6]
unchanged: Crystal form change (under all stability conditions)
